In US6528098B2, “Preparation of a therapeutic composition” (Advanced Viral Research Corp., priority 1996, dated 2003):
Entries after “also recorded” stand apart in the source; their conditions may differ. No end group written: not given here.

Columns and labels:
[1] = test system: IL-8 secretion by U937 cells; assay: IL-8 secretion by cultured U937 cells, ELISA; format: cell-based, human; details: for production of interlukin-8 (IL-8) in U937 cells: general statement; for up-regulation of IL-8 secretion compared with Product R: peptide solutions 2 mg/ml, equimolar mixture 4 mg/ml, final concentration 10% in culture media, FIG. 20
Description: (§1) Ammonium sulfate precipitation of Product U peptides: Product U samples are lyophilized and re-dissolved in 20% of original sample volume in water (5X concentrated). Ammonium sulfate crystals are added to the solution to reach 60% ammonium sulfate saturation (390 mg/ml solution). Gentle mixing solubilizes crystals. Protein precipitates appear after 30 mm to 1 hr incubation on ice and is centrifuged at 16,000×g for 30 min. at […]. The pellet is dissolved in 5% of original sample volume in water. The solution is desalted by gel filtration chromatography through a column of BioGel P-2. The column is eluted with 0.1X phosphate buffered saline (PBS). Only protein containing fractions are pooled and lyophilized.
(§2) Separation and isolation of two major neptide of Product R by gel ruhranon chromatography: A BioGel P-10 column (1.6 cm×52 cm) was equilibrated with 0.1X concentration of PBS. Two ml of 2X concentrated Product R was applied to the column, which was eluted with the same buffer at a flow rate of 25 mI/hr. Four mm. fractions were collected. All protein-containing fractions are analyzed by Sodium dodecyl sulfate polyacrilamide gel electrophoresis (SDS-PAGE). Fraction, containing primarily peptide A and peptide B are pooled separately and lyophilized. Peptide A pool contains very little contamination of the other peptide, however, the peptide B pool is highly enriched but still contains peptide A as a major contaminant. A reasonable estimate of peptide purity in the pools is >90% for peptide A and >75% for peptide B.
U937 cell culture: The U937 human hystiocytic lymphoma cell line was purchased from the American Type Culture Collection. Cells were thawed and maintained in logarithmic growth (5-9×10^5 cells/mL) in RPMI 1640 culture medium, supplemented with 10% fetal bovine serum, heat inactivated at 56° C. for 30 min, 2mM L-glutamine and 1x Penicillin-Streptomycin.
Product R or isolated peptide treatment: Cells (1.0×10^5/ml) are cultured in growth medium containing Product R, isolated purified peptide solution, mixed peptides solution or Dulbecco's PBS for 2 days. Following centrifugation, the culture supernatants are analyzed using chemokine ELISA kits. Final concentration of Product R in the culture medium was 10% (v/v). The ammonium sulfate precipitated peptides were reconstituted in culture medium to yield a 10 mg/ml solution. Two 2-fold dilutions were prepared, also using culture medium as diluent. These solutions were used at a final concentration of 10% in the U937 cell culture. The individual lyophilized peptides were reconstituted in endotoxin-free water to yield 2 mg/ml solutions (which is the approximate concentration of each peptide in Product R). An equimolar mixture of both peptides was prepared at a final concentration of 4 mg/ml. Both were used at a final concentration of 10% in the culture media for the assays.
(§3) Measurement of secreted IL-8 and MCP-1: The concentrations of IL-8 and MCP-1 in the culture supernatants are assayed by ELISA, using human IL-S ELISA kits (Endogen. Inc.) and Quantikine human MCP-1 ELISA kits (R&D Systems, Inc.), respectively, according to manufacturer's instructions (with slight modifications for the MCP-1 ELISA). […] Absorbances are measured on a PowerWave 200 Microplate Scanning Spectrophotometer. Dilutions of the standard protein supplied by each manufacturer are utilized to generate a four-parameter logistic fit standard curve, and the concentration of chemokine in each supernatant is determined by extrapolation.

[2] = test system: MCP-1 secretion by U937 cells; assay: MCP-1 secretion by cultured U937 cells, ELISA; format: cell-based, human; details: for production of monocyte chemotactic protein 1 (MCP-1) in U937 cells: general statement; for up-regulation of MCP-1 secretion compared with Product R: peptide solutions 2 mg/ml, equimolar mixture 4 mg/ml, final concentration 10% in culture media, FIG. 20
Description: as §1, §2
U937 cell culture: The U937 human hystiocytic lymphoma cell line was purchased from the American Type Culture Collection. […]
Product R or isolated peptide treatment: Cells (1.0×10^5/ml) are cultured in growth medium containing Product R, isolated purified peptide solution, mixed peptides solution or Dulbecco's PBS for 2 days. Following centrifugation, the culture supernatants are analyzed using chemokine ELISA kits. […]
as §3

trypsin = target: T1, trypsin (Bos taurus, UniProt P00760); assay: Treatment of Product R with trypsin, SDS-PAGE on a 16% gel; format: physicochemical; set-up: key: “−” represents no substantial alteration of the stainable bands; “+” represents substantial alteration of the stainable bands; details: 250 μg/ml trypsin, 25° C., 19 hours
T1 construct: purchased Boehringer Mannheim USA
T1 sequence (P00760 24-246): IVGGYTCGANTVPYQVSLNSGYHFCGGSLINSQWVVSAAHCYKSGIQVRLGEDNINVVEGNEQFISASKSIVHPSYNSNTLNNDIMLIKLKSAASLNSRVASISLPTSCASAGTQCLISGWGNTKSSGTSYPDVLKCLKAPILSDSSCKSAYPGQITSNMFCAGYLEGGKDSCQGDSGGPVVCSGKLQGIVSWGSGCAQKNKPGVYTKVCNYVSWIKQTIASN
Description: (§4) The biochemical properties of the peptides: Some biochemical properties of the silverstainable peptide components of Product R are analyzed using various catabolic enzymes, as described below:
The treatment with trypsin (Boehringer Mannheim USA): Trypsin is a serine protease, which specifically cleaves peptide bonds of lysine and arginine at the C-terminal at pH 7.5-9.0. A Product R sample is incubated in a reaction buffer having 100 mM Tris-HCl, pH 8.0, 0.1% SDS and 250 μg/ml of sequencing grade trypsin at 25° C. for 19 hours and then subject to SDS-PAGE on a 16% gel. While serum proteins will be broken down to peptides smaller than 4.3 KDa under such reaction conditions, none of the silver stained components of Product R are affected by trypsin.
(§5) A summary of the above described treatments by catabolic enzymes is provided in the following TABLE III, and the results of the treatment are shown in FIG. 5, wherein “−” represents no substantial alteration of the stainable bands and “+” represents substantial alteration of the stainable bands.

[3] = test system: Calf thymus alkaline phosphatase (CIAP); assay: Treatment of Product R with alkaline phosphatase, SDS-PAGE on a 16% gel; format: physicochemical; set-up: key to Sensitivity of the Peptide Components of Product R (SDS-PAGE): Alkaline Phosphatase (200 units/ml): “−” represents no substantial alteration of the stainable bands; “+” represents substantial alteration of the stainable bands; details: 200 units/ml CIAP, 37° C., about one hour
Description: as §4
The treatment with alkaline phosphatase (Life Technologies, USA): Calf thymus alkaline phosphatase (CIAP) is a phosphomonoesterase that hydrolyses 5′-phosphate groups from DNA, RNA and nucleotides. A Product R sample is incubated in a reaction buffer provided by the manufacturer of the enzyme and 200 units/ml CIAP at 37° C. for about one hour and subjected to SDS-PAGE on a 16% gel.
as §5

chymotrypsin = target: T2, chymotrypsin (Bos taurus, UniProt P00766); assay: Treatment of Product R with chymotrypsin, SDS-PAGE on a 16% gel; format: physicochemical; set-up: key to Sensitivity of the Peptide Components of Product R (SDS-PAGE): Chymotrypsin (250 μg/ml): “−” represents no substantial alteration of the stainable bands; “+” represents substantial alteration of the stainable bands; details: 250 μg/ml chymotrypsin, 25° C., 19 hours
T2 construct: purchased Boehringer Mannheim, USA
Description: as §4
The treatment with chymotrypsin (Boehringer Mannheim, USA):Chymotrypsin is a serine protease that specifically hydrolyses the peptide bonds of tyrosine, phenylalanine and tryptophan at C-terminals. It also cleaves peptide bonds of leucine, methionine, alanine, aspartic acid and glutamic acid at C-terminals at relatively lower rates. A Product R sample is incubated in a reaction buffer containing 100 mM Tris-HCl, pH 7.6, 10 mM CaCl2 and 250 μg/ml of sequencing grade chymotrypsin at 25° C. for 19 hours and then subject to SDS-PAGE on a 16% gel.
as §5

Row | Sequence | production of interlukin-8 (IL-8) in U937 cells [1] | up-regulation of IL-8 secretion compared with Product R ([1]; listed as Peptide B) | up-regulation of IL-8 secretion compared with Product R ([1]; listed as peptide-B) | production of monocyte chemotactic protein 1 (MCP-1) in U937 cells [2] | up-regulation of MCP-1 secretion compared with Product R ([2]; listed as peptide-B) | Sensitivity of the Peptide Components of Product R (SDS-PAGE): Trypsin (250 μg/ml) (trypsin) | Sensitivity of the Peptide Components of Product R (SDS-PAGE): Alkaline Phosphatase (200 units/ml) [3] | change of band intensity / hydrolysis by alkaline phosphatase [3] | Sensitivity of the Peptide Components of Product R (SDS-PAGE): Chymotrypsin (250 μg/ml) (chymotrypsin) | change of band intensity after chymotrypsin treatment (chymotrypsin) | up-regulation of IL-8 secretion compared with Product R [1] | up-regulation of MCP-1 secretion compared with Product R [2]
1 | GEIPDAGGRIVDYYVGFSDSV (not fully specified (residue 18)) [Peptide-B, 21-amino acid peptide linked at serine 18 through a diphosphodiester group to the 3′-end of an adenylyl (3′-5′) adenosine moiety] | capable of inducing the production; also recorded: contributes more to the activity than peptide-A | maintained most of the ability of Product R to up-regulate IL-8 secretion | induces higher levels of secretion of IL-8 or MCP-1 than peptide-A | capable of inducing the production; also recorded: contributes more to the activity than peptide-A | failed to elicit a response same as that of Product R; also recorded: slightly more active than peptide A; also recorded: induces higher levels of secretion of IL-8 or MCP-1 than peptide-A | − | − | resistance | − | no apparent effect |  | 
2 | KVLPVPQKAVPYPQRDMPIQAFLLYQEPVLG [Peptide-A, 31-amino-acid long peptide derived from bovine beta-casein, constituent of Product R] | capable of inducing the production |  |  | capable of inducing the production |  | − | − |  | + | significantly reduces the intensity | only elicited a less response | failed to elicit a response same as that of Product R
